Laboratory results reported in patent US20120083522A1, “MODULATION OF INFLAMMATORY RESPONSES BY FACTOR XI” (Isis Pharmaceuitcals, inc., priority 2009, published 2012).
e = 2'-O-(2-methoxyethyl) (MOE); d = 2'-deoxy (DNA)

Assays:
[1] = system: human Factor XI mRNA; assay: Dose-dependent antisense inhibition in HepG2 cells, lipofectin (Example 2); type: cell-based; conditions: approximately 16 hours
Experimental: Cells were plated at a density of 10,000 cells per well and transfected using lipofectin reagent with 9.375 nM, 18.75 nM, 37.5 nM, 75 nM, and 150 nM concentrations of antisense oligonucleotide, as specified in Table 3. After a treatment period of approximately 16 hours, RNA was isolated from the cells and Factor XI mRNA levels were measured by quantitative real-time PCR. Human Factor XI primer probe set RTS 2966 (forward sequence: […], incorporated herein as SEQ ID NO: 3; reverse sequence: […], incorporated herein as SEQ ID NO: 4; probe sequence: TTGTCTACTGAAGCACACCCAAACAGGGAX, wherein X is the fluorophore, incorporated herein as SEQ ID NO: 5) was used to measure mRNA levels. Factor XI mRNA levels were adjusted according to total RNA content, as measured by RIBOGREEN®. Results are presented as percent inhibition of Factor XI, relative to untreated control cells.

[2] = system: human Factor XI mRNA; assay: Antisense inhibition in HepG2 cells by microwalk gapmers, 75 nM, lipofectin (Example 3); type: cell-based; conditions: HepG2 cells, 75 nM, oligonucleotides targeted to nucleobases 1275 to 1318 of SEQ ID NO: 1
In short: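 HepG2 cells (10,000 per well) were transfected with 75 nM gapmer using lipofectin and treated for about 24 h. Factor XI mRNA was quantified by real-time PCR, normalized to RiboGreen total RNA and expressed as percent inhibition versus untreated controls.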

[3] = system: human Factor XI mRNA; assay: Antisense inhibition in HepG2 cells by microwalk gapmers, 8,000 nM, electroporation (Example 14); type: cell-based; conditions: HepG2 cells, 8,000 nM
In short: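 HepG2 cells electroporated with 8,000 nM 2′-MOE phosphorothioate gapmer (5-10-5, 5-8-5 or 6-8-6). Factor XI mRNA measured after ~24 h by qRT-PCR, normalised to RIBOGREEN total RNA. Reported as percent inhibition versus untreated cells.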

[4] = parameters: species or system Sprague-Dawley rats; conditions: rat, in vivo, sc, 20 mg/kg
Experimental: The concentration of the full-length oligonucleotide as well as the total oligonucleotide concentration (including the degraded form) was measured. The method used is a modification of previously published methods (Leeds et al., 1996; Geary et al., 1999) which consist of a phenol-chloroform (liquid-liquid) extraction followed by a solid phase extraction. An internal standard (ISIS 355868, a 27-mer 2′-O-methoxyethyl modified phosphorothioate oligonucleotide, […], designated herein as SEQ ID NO: 270) was added prior to extraction. […] The results are presented in Tables 98 and 99, expressed as μg/g liver or kidney tissue.

[5] = system: human Factor XI mRNA; assay: Dose-dependent inhibition and IC50 in HepG2 cells, electroporation (Example 15); type: cell-based
Experimental: Cells were plated at a density of 20,000 cells per well and transfected using electroporation with 123.46 nM, 370.37 nM, 1,111.11 nM, 3,333.33 nM and 10,000 nM concentrations of antisense oligonucleotide, as specified in Table 52. After a treatment period of approximately 16 hours, RNA was isolated from the cells and Factor XI mRNA levels were measured by quantitative real-time PCR. Human Factor XI primer probe set RTS 2966 was used to measure mRNA levels. Factor XI mRNA levels were adjusted according to total RNA content, as measured by RIBOGREEN. Results are presented as percent inhibition of Factor XI, relative to untreated control cells.

[6] = system: human Factor XI mRNA; assay: Dose-dependent inhibition in HepG2 cells, lipofectin (Example 4); type: cell-based; conditions: 16 hours
In short: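 HepG2 cells at 10,000 per well were lipofectin-transfected with 9.375, 18.75, 37.5 or 75 nM antisense oligonucleotide for about 16 h. Factor XI mRNA was quantified by real-time PCR (primer probe set RTS 2966) and normalised to RIBOGREEN total RNA. Values are percent inhibition versus untreated cells.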

[7] = system: human Factor XI mRNA; assay: Dose-dependent inhibition in HepG2 cells, electroporation (Example 4); type: cell-based; conditions: 16 hours
In short: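 HepG2 cells electroporated with 0.7, 2.2, 6.7 or 20 μM antisense gapmer and harvested after ~16 h. Factor XI mRNA quantified by qRT-PCR (primer probe set RTS 2966), normalised to total RNA (RIBOGREEN). Reported as percent inhibition versus untreated control cells.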

Substance | percent inhibition of Factor XI ([1]; 9.375 nM) [%] | percent inhibition of Factor XI ([1]; 18.75 nM) [%] | percent inhibition of Factor XI ([1]; 37.5 nM) [%] | percent inhibition of Factor XI ([1]; 75 nM) [%] | percent inhibition of Factor XI ([1]; 150 nM) [%] | % inhibition of human Factor XI mRNA levels [2] [%] | Percent inhibition of human Factor XI mRNA levels [3] [%] | Half-life in the liver and kidney [4] [days] | percent inhibition of Factor XI mRNA ([5]; electroporation, 123.47 nM) [%] | percent inhibition of Factor XI mRNA ([5]; electroporation, 370.37 nM) [%] | percent inhibition of Factor XI mRNA ([5]; electroporation, 1,111.11 nM) [%] | percent inhibition of Factor XI mRNA ([5]; electroporation, 3,333.33 nM) [%] | percent inhibition of Factor XI mRNA ([5]; electroporation, 10,000.0 nM) [%] | further results
412223 (antisense ACAGTTTCTGGCAGGCCTCG; sugars from the 5' end e5 d10 e5, backbone and methylation of C not given here) [compound 412223] | 33 | 48 | 62 | 76 | 81 | 85 | 62 | 22 |  |  |  |  |  | 
412224 (antisense GCATTGGTGCACAGTTTCTG; sugars from the 5' end e5 d10 e5, backbone and methylation of C not given here) [compound 412224] | 24 | 45 | 57 | 70 | 81 | 93 | 84 | 17 |  |  |  |  |  | 
412225 (antisense GCAGCGGACGGCATTGGTGC; sugars from the 5' end e5 d10 e5, backbone and methylation of C not given here) [compound 412225] | 32 | 42 | 65 | 78 | 73 | 86 | 86 | 21 |  |  |  |  |  | 
413481 (antisense GGTGCACAGTTTCTGGCAGG; sugars from the 5' end e5 d10 e5, backbone and methylation of C not given here) [compound 413481] | 22 | 38 | 56 | 67 | 83 |  | 82 | 21 |  |  |  |  |  | 
413482 (antisense GGACGGCATTGGTGCACAGT; sugars from the 5' end e5 d10 e5, backbone and methylation of C not given here) [compound 413482] | 26 | 39 | 59 | 74 | 82 | 89 | 88 | 20 |  |  |  |  |  | 
416851 (antisense GTGCACAGTTTCTGGCAGGC; 5-10-5 gapmer, wing sugar chemistry not given here, further chemistry not given here) [compound 416851] |  |  |  |  |  | 88 | 89 | 24 | 13 | 35 | 36 | 64 | 72 | 
416856 (antisense GGCATTGGTGCACAGTTTCT; 5-10-5 gapmer, wing sugar chemistry not given here, further chemistry not given here) [compound 416856] |  |  |  |  |  | 95 | 84 | 19 | 12 | 23 | 35 | 59 | 83 | percent inhibition of Factor XI mRNA, relative to untreated control cells ([6]; 9.375 nM): 21%; percent inhibition of Factor XI mRNA, relative to untreated control cells ([6]; 18.75 nM): 45%; percent inhibition of Factor XI mRNA, relative to untreated control cells ([6]; 37.5 nM): 58%; percent inhibition of Factor XI mRNA, relative to untreated control cells ([6]; 75 nM): 74%; percent inhibition of Factor XI mRNA, relative to untreated control cells ([7]; 0.7 μM): 0%; percent inhibition of Factor XI mRNA, relative to untreated control cells ([7]; 2.2 μM): 29%; percent inhibition of Factor XI mRNA, relative to untreated control cells ([7]; 6.7 μM): 47%; percent inhibition of Factor XI mRNA, relative to untreated control cells ([7]; 20 μM): 93%
416859 (antisense GACGGCATTGGTGCACAGTT; 5-10-5 gapmer, wing sugar chemistry not given here, further chemistry not given here) [compound 416859] |  |  |  |  |  | 90 | 85 | 19 |  |  |  |  |  | 
416860 (antisense CGGACGGCATTGGTGCACAG; 5-10-5 gapmer, wing sugar chemistry not given here, further chemistry not given here) [compound 416860] |  |  |  |  |  | 88 | 89 | 21 | 0 | 28 | 39 | 41 | 40 | 
416861 (antisense GCGGACGGCATTGGTGCACA; 5-10-5 gapmer, wing sugar chemistry not given here, further chemistry not given here) [compound 416861] |  |  |  |  |  | 92 | 90 | 25 | 0 | 15 | 27 | 66 | 80 | 
416863 (antisense CAGCGGACGGCATTGGTGCA; 5-10-5 gapmer, wing sugar chemistry not given here, further chemistry not given here) [compound 416863] |  |  |  |  |  | 83 | 86 | 20 |  |  |  |  |  | 
416866 (antisense CTGGCAGCGGACGGCATTGG; 5-10-5 gapmer, wing sugar chemistry not given here, further chemistry not given here) [compound 416866] |  |  |  |  |  | 88 | 84 | 16 |  |  |  |  |  | 
416867 (antisense ACTGGCAGCGGACGGCATTG; 5-10-5 gapmer, wing sugar chemistry not given here, further chemistry not given here) [compound 416867] |  |  |  |  |  | 83 | 85 | 19 |  |  |  |  |  | 
